Data: PMC4562762 (Drug Design, Development and Therapy, 2015)

Key:
CEM-T cells = assay: Cell cycle analysis of CEM-T cells; type: cell-based; details: 1 μM, 24 hours
[1] = Stability in PBS supplemented with 10% BSA; type: physicochemical; details: 37°C
HIV-1 gag and env mRNAs = assay: HIV-1 gag and env mRNA expression in infected CEM-T cells; type: cell-based; details: CEM-T cells infected with HIV-1 Luc, 1 μM, 48 hours
[2] = Stability in serum-free RPMI 1640 media; type: in vitro ADME; details: serum-free RPMI 1640 medium
HIV-1 LTR / NF-κB = assay: Basal HIV-1 LTR and NF-κB driven luciferase transcription in 293T cells; type: cell-based; details: 2 μM (legend: 1 μM)
HO-1 = HO-1 mRNA expression; type: cell-based; details: 1 μM, 18S RNA normalization
[3] = Stability in mouse serum at 37°C; type: in vitro ADME
in vitro [4] = details: human
[5] = system: VSVG-pseudotyped HIV-1 pNL4-3 virus expressing luciferase (HIV-1 Luc); assay: microbe, parasite or virus in culture; type: cell-based; details: Human immunodeficiency virus 1, read-out: IC50, one round HIV-1 infection
in vitro [6] = details: IC50, viability of PBMCs, trypan blue, activated PBMCs
[7] = system: HIV-1 reverse transcription; assay: Quantitative PCR for viral DNA; type: cell-based
HIV-1 LTR = assay: Tat-induced HIV-1 LTR and proviral pNL4-3 luciferase transcription in 293T cells; type: cell-based; details: 2 μM (legend: 1 μM)
[8] = CEM-T cells infected with HIV-1 Luc, compared with AZT

For `COc1cc(/C=C/C(=O)CC(=O)/C=C/c2ccc(O)c(OC)c2)ccc1O` [curcumin], the “effect on cell cycle progression” value (CEM-T cells) was “no effect”, the “stabilizing effect of BSA (stability in PBS with 10% BSA)” value [1] was “No stabilization and even a slight increase in degradation” and the “expression of HIV-1 gag and env mRNAs” value (HIV-1 gag and env mRNAs) was “significantly reduced”. For the same compound, the half-life [2] was about 1 h, the “effect on NF-kB driven transcription” value (HIV-1 LTR / NF-κB) was “no effect” and the “effect on basal HIV-1 transcription” value (HIV-1 LTR / NF-κB; HIV-1 LTR luciferase vector) was “no effect”. For the same compound, the “HO-1 expression in PBMCs” value (HO-1) was “induced HO-1”, the “HO-1 expression in CEM-T cells” value (HO-1; 24 hours) was “induced HO-1” and the half-life at 50 μM [3] was 10 h. For the same compound, the IC50 (in vitro [4]) was 1260 nM, the IC50 [5] was 700 nM and the IC50 (in vitro [6]) was 35000 nM. The “effect on HIV-1 reverse transcription (overall)” value ([7]; 2 μM) was “inhibited HIV-1 RT”, the “effect on early LTR (early reverse transcription)” value [7, 8] was “inhibited early LTR similarly or better than the established HIV-1 inhibitor, AZT” and the “effect on late LTR formation (late reverse transcription)” value [7, 8] was “no significant effect”. The “effect on transcription from proviral pNL4-3 plasmid” value (HIV-1 LTR) was “Neither curcumin nor curcumin A at 2 μM concentrations had an effect” and the “effect on Tat-induced HIV-1 transcription” value (HIV-1 LTR; HIV-1 LTR luciferase + Tat vector) was “Neither curcumin nor curcumin A at 2 μM concentrations had an effect”.
